Results from paper PMC6421079 (European neuropsychopharmacology : the journal of the …, 2018).
Like-named read-outs stand apart in the source and are kept apart here. Where no end group is shown, it is not given here.

Assays:
[1] = cited from earlier work
[2] = ref Groer et al., 2007; cited from earlier work
[3] = system: δ opioid receptors (δ-ORs); settings: synthetic analog of rubiscolin-6; ref Yang et al., 2003b; cited from earlier work
δ-ORs = settings: ref Chiang et al., 2016; Molinari et al., 2010; cited from earlier work
δ-OR = δ-OR (Homo sapiens, UniProt P41143); experiment: Radioligand binding assay: displacement of [^3H]DPDPE
δ-OR, sequence (P41143 whole entry): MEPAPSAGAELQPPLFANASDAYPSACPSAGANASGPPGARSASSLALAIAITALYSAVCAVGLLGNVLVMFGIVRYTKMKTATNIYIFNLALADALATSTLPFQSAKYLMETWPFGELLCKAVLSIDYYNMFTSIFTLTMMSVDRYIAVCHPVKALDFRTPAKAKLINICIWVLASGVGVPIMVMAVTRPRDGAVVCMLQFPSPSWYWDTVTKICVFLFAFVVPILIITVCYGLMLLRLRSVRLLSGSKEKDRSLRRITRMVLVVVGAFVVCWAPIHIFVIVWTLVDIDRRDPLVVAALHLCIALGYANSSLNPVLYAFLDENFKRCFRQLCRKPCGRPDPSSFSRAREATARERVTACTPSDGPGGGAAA

humanδ-OR / β-arrestin 2 = humanδ-OR / β-arrestin 2 (Homo sapiens, UniProt P41143); experiment: β-arrestin 2 recruitment, CHO-humanδ-OR PathHunter cells; format: cell-based; settings: for efficacy α β-arrestin2: normalized to leu-enkephalin, mean ± SEM
humanδ-OR / β-arrestin 2, sequence (P41143 whole entry): as above

Compound: COc1ccsc1CNCC[C@@]1(c2ccccn2)CCOC2(CCCC2)C1 [TRV130]
- side effect profile ([1]; ref DeWire et al., 2013): appear to possess a reduced side effect profile

Compound: C[C@@H](Cc1ccsc1)NC(=O)NC[C@H](Cc1ccc(O)cc1)N(C)C [PZM21]
- side effect profile ([1]; ref Manglik et al., 2016): appear to possess a reduced side effect profile

Compound: COC(=O)[C@@H]1C[C@H](OC(=O)c2ccccc2)C(=O)[C@H]2[C@@]1(C)CC[C@H]1C(=O)O[C@H](c3ccoc3)C[C@]21C [herkinorin]
- G protein bias, in words [2]: G protein-biased

Compound: YPLDLV
- potency and δ-OR selectivity, in words [3]: more potent and δ-OR-selective

Compound: DADLE
- β-arrestin recruitment, in words (δ-ORs): strongly recruit β-arrestin

Compound: YPLDLF [Rubiscolin-6]
- Ki (δ-OR): 1 µM
- EC50 (humanδ-OR / β-arrestin 2): 7.94 µM
- efficacy α β-arrestin2 (humanδ-OR / β-arrestin 2): 20±3

Compound: DPDPE
- β-arrestin recruitment, in words (δ-ORs): strongly recruit β-arrestin

Compound: YPLDL [Rubiscolin-5]
- Ki (δ-OR): 3.16 µM
- EC50 (humanδ-OR / β-arrestin 2): 79.4 µM
- efficacy α β-arrestin2 (humanδ-OR / β-arrestin 2): 15±4
